Measured values taken from patent US20260266848A1, “COMPOSITIONS AND METHODS FOR DIAGNOSING AND TREATING DYSTONIA” (Duke University, priority 2023, published 2026).

Legend:
[1] = test system: DYT-TOR1A MEF EVs; experiment: Quantitative LC-MS/MS proteomics of EVs from drug-treated DYT-TOR1A MEF cultures (ritonavir, salubrinal); assay type: cell-based, mouse; set-up: key to RTV Corrective Direction / RTV Corrective Direction, Grwd1 / RTV Corrective Direction, Srrm2 / RTV Corrective Direction, Rbm17 / RTV Corrective Direction, Dcaf8 / RTV Corrective Direction, Edil3 / RTV Corrective Direction, Timp3 / RTV Corrective Direction, Heatr3 / RTV Corrective Direction, Brd4 / RTV Corrective Direction, P3h4 / RTV Corrective Direction, Pacsin3 / RTV Corrective Direction, Naa50 / RTV Corrective Direction, Lpar6 / RTV Corrective Direction, Ndrg1 / RTV Corrective Direction, Kntc1 / RTV Corrective Direction, Cdk11b / RTV Corrective Direction, Sumo1 / RTV Corrective Direction, Lsm4 / RTV Corrective Direction, Hmga2 / RTV Corrective Direction, Cstf1 / RTV Corrective Direction, Tes / RTV Corrective Direction, Sbno1 / RTV Corrective Direction, Unc119b / RTV Corrective Direction, Cfdp1 / RTV Corrective Direction, Sec61b: YES = protein abundance effect opposite to DYT/WT; conditions: EV protein abundance
[2] = test system: WT MEF EVs; experiment: Quantitative LC-MS/MS proteomics of EVs from ISRIB-treated WT MEF cultures; assay type: cell-based, mouse; set-up: key to ISRIB and DYT Parallel Direction / ISRIB and DYT Parallel Direction, Ctdsp1 / ISRIB and DYT Parallel Direction, Pcdh19 / ISRIB and DYT Parallel Direction, Tspan7 / ISRIB and DYT Parallel Direction, Myo1e / ISRIB and DYT Parallel Direction, Plpp3 / ISRIB and DYT Parallel Direction, Sh3bp4 / ISRIB and DYT Parallel Direction, Dnajc7 / ISRIB and DYT Parallel Direction, Drg1 / ISRIB and DYT Parallel Direction, Maea: YES = protein abundance effect similar to DYT/WT; conditions: EV protein abundance

Akr1b1 was tested, and the “RTV Corrective Direction” value ([1]; DYT + RTV (ritonavir) vs DYT, direction compared with DYT/WT) was “YES”, the “DYT + RTV/DYT Cohen's d” value ([1]; ritonavir (RTV)-treated DYT vs DYT) was 5.32 and the “WT + ISRIB/WT Cohen's d” value ([2]; ISRIB-treated WT vs WT) was −0.22. The “ISRIB and DYT Parallel Direction” value ([2]; WT + ISRIB vs WT, direction compared with DYT/WT) was “YES”.
